The values that follow come from patent US10258587B2, “Branched chain fatty acids for prevention or treatment of gastrointestinal disorders” (priority 2007, dated 2019).

In one data set the test system is Caco-2 cells. The data set is described as follows: Caco-2 BCFA uptake experiment (18 h incubation, GC/MS of cell lipids). The data set is classed as in vitro ADME, human. The note with it: BCFA-treated Caco-2 cells. As to the method: Twenty-four hours prior to treatment with BCFA, DMEM was replaced with MEM (Minimum Essential Medium). […] Two others served as controls. Cells were incubated for 18 hours, after which media was removed and the cells were thoroughly and carefully washed three times. Cell lipids were extracted and FAME prepared for GC/MS.

The next data set deals with Bacillus megaterium. As to conditions: LL-37 mixed in a ratio of 3:1 with vernix lipids; cited from earlier work.

Consider `CC(C)CCCCCCCCCCCCCCCCC(=O)O` [iso-20:0, iso-eicosanoic acid], for which, in the data set with Caco-2 cells (MAG fraction), the “incorporation of BCFA into monoacylglycerols (MAG)” value is reported as “favoring”. Besides, the “incorporation of BCFA into phospholipids (PL)” value with Caco-2 cells (PL fraction) is reported as “selection against”.

Take “LL-37: antimicrobial vernix peptide (LLGDFFRKSKEKIGKEFKRIVQRIKDFLRNLVPRTES; Antibacterial peptide LL-37; UniProt P49913 134-170, looked up)”: the “growth of Bacillus megaterium, peptide mixed with vernix lipids” value in the data set with Bacillus megaterium is recorded as “further growth inhibition”.
